Measured values from patent US11026940B2, “Compositions for the mobilization, homing, expansion and differentiation of stem cells and methods of using the same” (Ampio Pharmaceuticals, Inc., priority 2013, dated 2021).
“And” between values parts separate entries of the source, which are not always exact repeats. Identical values can stand only once.

Tests used:
Format in all cases: cell-based, human
Collagen 2A1 = assay: Stem cell chondrogenesis, real time PCR gene expression: Collagen 2A1; conditions: for Cp Coll / Mean regulation: Collagen 2A1; for Cp Coll / Mean regulation / Mean ΔCp / ΔCp: Day 22; for Mean regulation: vs saline; for Mean ΔCp / ΔCp: Collagen 2A1 vs GAPDH; for regulation, Collagen 2A1 / Mean regulation, Collagen 2A1: fold regulation vs saline; for regulation, Collagen 2A1 / ΔCp, Collagen 2A1 / 2^-ΔΔCp vs saline, Collagen 2A1 / ΔΔCp vs saline, Collagen 2A1: single replicate well; for Mean regulation, Collagen 2A1 / Mean ΔCp, Collagen 2A1: triplicate wells; for ΔCp, Collagen 2A1: human bone marrow MSC, chondrogenic medium + TGF beta 3; for ΔCp, Collagen 2A1 / 2^-ΔΔCp vs saline, Collagen 2A1 / ΔΔCp vs saline, Collagen 2A1 / Mean ΔCp, Collagen 2A1: vs Actin
Method: (§1) • Stem Cells: Bone marrow derived human mesenchymal stem cells: Passage 5 Bone marrow derived human mesenchymal stem cells (HUXMA-01001, Cyagen Biosciences, Sunnyvale Calif.) • Mesenchymal Stem Cell Chondrogenic Differentiation medium (GUXMX-90041, Cyagen Biosciences, Sunnyvale Calif.) • TheraPEAK MSCGM chemically defined Stem cell medium (190632 Lonza) • 1 mM Dexamethasone acetate and mifepristone in absolute ethanol (Sigma) • Saline or 0.9% Sodium chloride for injection ZR Flush (Excelsior Medical, Neptune N.J.) • Sterile filtered 0.6 mM sodium caprylate in saline (sigma) • Sterile filtered 3 mM NAT in saline (sigma); To prepare, heat at 60° C. for 30 minutes then sonicate for 5 minutes. • Sterile filtered 10 mM DADKP in saline • 0.2 μM syringe filters • Hepes buffered saline, Trypsin/EDTA, Trypsin neutralizing solution (Lonza reagent pack) • 182 cm2 tissue culture flasks • pipettes and sterile tips • Tissue culture hood, humidified CO2 incubator, water or bead bath • 24 well tissue culture plates • Qiagen RNeasy plus spin columns (Qiagen 74134) • Qiagen RT2 qPCR primer pairs for Collagen 2A1, MMP13, TIMP1, Aggrecan, GAPDH, and Actin B • Roche Sybr green I master mix and Invitrogen Superscript VILO master mix. • Roche 480 lightcycler
(§2) The following stock drug treatment solutions were prepared in saline for injection and warmed to 37° C. in bath: • 4 μM dexamethasone • 4 μM mifepristone • 3 mM NAT • 0.6 mM caprylate • 80 μM DADKP • Mix of 3 mM NAT, 0.6 mM caprylate, 80 μM DADKP (“Ampion” mix)
(§3) Cyagen Chondrogenic Differentiation medium was prepared by manufacturer protocols but excluding dexamethasone and TGF beta 3 supplements, and warmed to 37° C. in bath.
(§4) The treatment protocol included expanding 5 HUXMA stem cells in 182 cm^2 flasks containing 40 mls TheraPEAK™ MSCGM to 80-90% confluence. Cells were trypsinized from the flasks and a 1.0×10^7 cell suspension of HUXMA stem cells was warmed in Cyagen Chondrogenic Differentiation medium. 20 μl of warmed cell suspension was spotted in the middle of each well of a 24-well tissue culture plate (200,000 cells per spot), and incubated at 37° C. and 5% CO2 for one hour.
(§5) The plates were removed from the incubator and an additional 720 μl chondrogenic medium was added to each well. 250 μl saline, or drug solutions were added to the appropriate wells in triplicate (bringing the final drug dilution to one-quarter of the stock drug treatment solution concentrations). 10 μl of TGF beta 3 solution (supplied by Cyagen) was added to each well, and the plates were returned to the incubator.
(§6) RNA isolation and analysis was conducted for all plates as follows at days 7, 14, and 22 post treatment (with the described medium exchanges). […] Qiagen RNeasy plus lysis buffer (with 2mercaptoethanol) was added to each well and gently shaken for 10 minutes. The lysed cell suspensions from each well were transferred to Qiashredder columns and spun at 14,000 rpm for 2 minutes. RNA isolation proceeded by RNeasy™ plus manufacturer's protocol. RNA was eluted from the Qiagen columns using 25 μl RNase free water.
(§7) cDNA synthesis and real time PCR was conducted as follows. First strand synthesis of cDNA from all samples was performed in 20 μl total volume using 10 μl isolated RNA. All cDNA reactions were then diluted with 30 μl nuclease free water. Real time PCR was then performed using 5 μl diluted cDNA, Roche Syber green master mix, and Qiagen RT^2 gPCR™ primer pairs in 20 μl total reaction volume. Relative gene expression was determined by delta deta Ct method.

MMP13 = assay: Stem cell chondrogenesis, real time PCR gene expression: MMP13; conditions: for Cp Coll / Mean regulation: MMP13; for Cp Coll / Mean regulation / Mean ΔCp / ΔCp: Day 22; for Mean regulation: vs saline; for Mean ΔCp / ΔCp: MMP13 vs GAPDH
SOX9 = assay: Stem cell chondrogenesis, real time PCR gene expression: SOX9; conditions: Day 14
Method: The treatment protocol included expanding 5 HUXMA stem cells in 182 cm^2 flasks containing 40 […] to 80-90% confluence. Cells were trypsinized from the flasks and a 1.0×10^7 cell suspension of HUXMA stem cells was warmed in Cyagen Chondrogenic Differentiation medium. 20 μl of warmed cell suspension was spotted in the middle of each well of a 24-well tissue culture plate (200,000 cells per spot), and incubated at 37° C. and 5% CO2 for one hour. […] Medium exchanges were performed every 3-4 days by aspirating the medium from the wells and replacing with fresh chondrogenic medium, diluted stocks, and TGF beta 3, as described above. […] Medium from the wells was removed and saved for further protein analysis. Qiagen RNeasy plus lysis buffer (with 2mercaptoethanol) was added to each well and gently shaken for 10 minutes. The lysed cell suspensions from each well were transferred to Qiashredder columns and spun at 14,000 rpm for 2 minutes. RNA isolation proceeded by RNeasyTM plus manufacturer's protocol. RNA was eluted from the Qiagen columns using 25 μl RNase free water. cDNA synthesis and real time PCR was conducted as follows. First strand synthesis of cDNA from all samples was performed in 20 μl total volume using 10 μl isolated RNA. All cDNA reactions were then diluted with 30 μl nuclease free water. Real time PCR was then performed using 5 μl diluted cDNA, Roche Syber green master mix, and Qiagen RT^2 gPCRTM primer pairs in 20 μl total reaction volume.

Aggrecan = assay: Stem cell chondrogenesis, real time PCR gene expression: Aggrecan; conditions: Day 22; for Mean ΔCp / ΔCp: Aggrecan vs Actin; for Cp Agg / Mean regulation: Aggrecan; for Mean regulation: vs saline
TIMP1 = assay: Stem cell chondrogenesis, real time PCR gene expression: TIMP1; conditions: Day 22; for Mean ΔCp: TIMP1 vs Actin
Method: as §1, §2, §3, §4, §5, §6, §7

[1] = Day 7, vs Actin, single replicate well
[2] = vs Actin, single replicate well

CCCCCCCC(=O)[O-].[Na+] [Caprylate, sodium caprylate]
Cp Coll (Collagen 2A1; Table 12): 22.93 and 25.6 and 24.26 | Cp Coll (Collagen 2A1; Table 16): 22.93 and 25.6 and 24.26 | Mean regulation (Collagen 2A1; Table 12): 101.18 | Mean regulation (Collagen 2A1; Table 16): 101.18 | Mean ΔCp (Collagen 2A1; Table 12): 6.557 | ΔCp (Collagen 2A1; Table 12): 6.08 and 7.19 and 6.4 | Mean ΔCp (Collagen 2A1; Table 16): 6.557 | ΔCp (Collagen 2A1; Table 16): 6.08 and 7.19 and 6.4 | regulation, Collagen 2A1 (Collagen 2A1; Day 7): 1.63 and −1.05 and −1.11 | Mean regulation, Collagen 2A1 (Collagen 2A1; Day 7): −0.18 | ΔCp, Collagen 2A1 (Collagen 2A1; Day 7): 6.03 and 6.81 and 6.88 | 2^-ΔΔCp vs saline, Collagen 2A1 (Collagen 2A1; Day 7): 1.6283 and 0.9482 and 0.9033 | ΔΔCp vs saline, Collagen 2A1 (Collagen 2A1; Day 7): −0.7 and 0.077 and 0.147 | Mean ΔCp, Collagen 2A1 (Collagen 2A1; Day 7): 6.573 | regulation, Collagen 2A1 (Collagen 2A1; Day 14): 7.19 and 6.95 and 4.28 | Mean regulation, Collagen 2A1 (Collagen 2A1; Day 14): 6.14 | ΔCp, Collagen 2A1 (Collagen 2A1; Day 14): 8.21 and 8.26 and 8.96 | 2^-ΔΔCp vs saline, Collagen 2A1 (Collagen 2A1; Day 14): 7.1934 and 6.9483 and 4.2772 | ΔΔCp vs saline, Collagen 2A1 (Collagen 2A1; Day 14): −2.85 and −2.8 and −2.1 | Mean ΔCp, Collagen 2A1 (Collagen 2A1; Day 14): 8.477 | regulation, MMP13 (MMP13; Day 7, fold regulation vs saline, single replicate well): −2.63 and 1.03 and −3.06 | Mean regulation, MMP13 (MMP13; Day 7, fold regulation vs saline, triplicate wells): −1.55 | ΔCp, MMP13 (MMP13; Day 7, human bone marrow MSC, chondrogenic medium + TGF beta 3, vs Actin, single replicate well): 6.03 and 4.59 and 6.25 | 2^-ΔΔCp vs saline, MMP13 (MMP13; [1]): 0.3807 and 1.0329 and 0.3268 | ΔΔCp vs saline, MMP13 (MMP13; [1]): 1.393 and −0.05 and 1.613 | Mean ΔCp, MMP13 (MMP13; Day 7, vs Actin, triplicate wells): 5.623 | Cp Coll (MMP13; Table 12): 20.28 and 20.31 and 20.73 | Cp Coll (MMP13; Table 16): 20.28 and 20.31 and 20.73 | Mean regulation (MMP13; Table 12): 0.62 | Mean regulation (MMP13; Table 16): 0.62 | Mean ΔCp (MMP13; Table 12): 2.733 | ΔCp (MMP13; Table 12): 3.43 and 1.9 and 2.87 | Mean ΔCp (MMP13; Table 16): 2.733 | ΔCp (MMP13; Table 16): 3.43 and 1.9 and 2.87 | regulation, SOX9 (SOX9; fold regulation vs saline, single replicate well): 1.16 and 1.99 and 2.28 | Mean regulation, SOX9 (SOX9; fold regulation vs saline, triplicate wells): 1.81 | ΔCp, SOX9 (SOX9; human bone marrow MSC, chondrogenic medium + TGF beta 3, vs Actin, single replicate well): 6.97 and 6.19 and 5.99 | 2^-ΔΔCp vs saline, SOX9 (SOX9; [2]): 1.1567 and 1.9862 and 2.2815 | ΔΔCp vs saline, SOX9 (SOX9; [2]): −0.21 and −0.99 and −1.19 | Mean ΔCp, SOX9 (SOX9; vs Actin, triplicate wells): 6.383 | Mean ΔCp (Aggrecan; Table 12): 7.42 | ΔCp (Aggrecan; Table 12): 6.11 and 9.72 and 6.43 | Mean ΔCp (Aggrecan; Table 16): 7.42 | ΔCp (Aggrecan; Table 16): 6.11 and 9.72 and 6.43 | Cp Agg (Aggrecan; Table 12): 21.64 and 25.43 and 21.95 | Cp Agg (Aggrecan; Table 16): 21.64 and 25.43 and 21.95 | Mean regulation (Aggrecan; Table 12): 10.81 | Mean regulation (Aggrecan; Table 16): 10.81 | Cp TIMP1 (TIMP1; TIMP1, Table 12): 17.65 and 18.77 and 19.77 | Cp TIMP1 (TIMP1; TIMP1, Table 16): 17.65 and 18.77 and 19.77 | Mean regulation (TIMP1; TIMP1, vs saline, Table 12): 1.12 | Mean ΔCp (TIMP1; Table 12): 3.143 | Mean ΔCp (TIMP1; Table 16): 3.143
